Assay results as given in PubChem BioAssay (NCI).
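GI50 is the concentration that inhibits growth by half. Definition used: TGI = concentration required for complete inhibition of growth.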

Legend:
Test in all cases: DTP human tumour cell line panel, 384-well format
[1] = tested on: HCT-116 colon
[2] = tested on: COLO 205 colon
[3] = tested on: CAKI-1 renal
[4] = tested on: BT-549 breast
[5] = tested on: A549 NSCLC
[6] = tested on: U251 glioblastoma
[7] = tested on: SK-OV-3 ovarian
[8] = tested on: HOP-62 NSCLC
[9] = tested on: OVCAR-8 ovarian
[10] = tested on: HCT-15 colon
[11] = tested on: MALME-3M melanoma
[12] = tested on: TK-10 renal
[13] = tested on: NCI-H226 lung
[14] = tested on: 786-0 renal
[15] = tested on: MDA-MB-468 breast
[16] = tested on: SR leukemia
[17] = tested on: K-562 leukemia
[18] = tested on: RPMI-8226 leukemia
[19] = tested on: HOP-92 NSCLC
[20] = tested on: UACC-62 melanoma
[21] = tested on: ACHN renal
[22] = tested on: UO-31 renal
[23] = tested on: SN12C renal
[24] = tested on: HS 578T breast
[25] = tested on: HT29 colon
[26] = tested on: MCF7 breast
[27] = tested on: UACC-257 melanoma
[28] = tested on: NCI-H522 lung
[29] = tested on: SF-295 CNS
[30] = tested on: OVCAR-3 ovarian
[31] = tested on: CCRF-CEM leukemia
[32] = tested on: SK-MEL-28 melanoma
[33] = tested on: IGROV1 ovarian
[34] = tested on: SF-268 CNS
[35] = tested on: EKVX NSCLC
[36] = tested on: HCC-2998 colon
[37] = tested on: A498 renal
[38] = tested on: KM12 colon
[39] = tested on: NCI-H23 lung
[40] = tested on: SK-MEL-5 melanoma
[41] = tested on: DU-145 prostate
[42] = tested on: SNB-75 CNS
[43] = tested on: SW-620 colon
[44] = tested on: MDA-MB-231 breast
[45] = tested on: RXF 393 renal
[46] = tested on: SNB-19 CNS
[47] = tested on: M14 melanoma
[48] = tested on: NCI-H322M lung
[49] = tested on: OVCAR-4 ovarian
[50] = tested on: PC-3 prostate
[51] = tested on: LOX IMVI melanoma
[52] = tested on: MDA-MB-435 melanoma
[53] = tested on: NCI-H460 NSCLC
[54] = tested on: MOLT-4 leukemia
[55] = tested on: HL-60(TB) leukemia
[56] = tested on: NCI/ADR-RES ovarian
[57] = tested on: SF-539 CNS
[58] = tested on: T-47D breast

## O=C(O)C1(C(=O)O)CCC1.[NH2-].[NH2-].[Pt+2]
[1]
  GI50: < 0.01 µM
  TGI: < 0.01 µM
[2]
  GI50: < 0.01 µM
  TGI: < 0.01 µM
[3]
  GI50: < 0.01 µM
  TGI: < 0.01 µM
[4]
  GI50: < 0.01 µM
  TGI: < 0.01 µM
[5]
  GI50: < 0.01 µM
  TGI: < 0.01 µM

## O=c1cc(-c2cccc3c2Sc2ccccc2S3)oc(N2CCOCC2)c1
[6]
  GI50: 12.7 µM
  TGI: 25.5 µM
[7]
  GI50: 15.2 µM
  TGI: 28.7 µM
[8]
  GI50: 13.6 µM
  TGI: 26.6 µM
[9]
  GI50: 12.8 µM
  TGI: 25.7 µM
[10]
  GI50: 7.02 µM
  TGI: 19.8 µM
[11]
  GI50: 6.31 µM
  TGI: 19.2 µM
[1]
  GI50: 9.36 µM
  TGI: 21.6 µM
[12]
  GI50: 12 µM
  TGI: 24.4 µM
[13]
  GI50: 12.7 µM
  TGI: 25.3 µM
[14]
  GI50: 10.6 µM
  TGI: 22.6 µM
[15]
  GI50: 8.61 µM
  TGI: 20.7 µM
[16]
  GI50: 2.53 µM
  TGI: 4.95 µM
[17]
  GI50: 5.04 µM
  TGI: 16.3 µM
[18]
  GI50: 3.35 µM
  TGI: 13.9 µM
[19]
  GI50: 10.1 µM
  TGI: 21.7 µM
[20]
  GI50: 10.4 µM
  TGI: 22.3 µM
[21]
  GI50: 14.8 µM
  TGI: 28.1 µM
[22]
  GI50: 6.91 µM
  TGI: 20.2 µM
[23]
  GI50: 11.5 µM
  TGI: 23.8 µM
[24]
  GI50: 6.58 µM
  TGI: 18.5 µM
[25]
  GI50: 12 µM
  TGI: 24.7 µM
[26]
  GI50: 6.98 µM
  TGI: 19.7 µM
[27]
  GI50: 10.2 µM
  TGI: 21.9 µM
[28]
  GI50: 12.4 µM
  TGI: 24.9 µM
[29]
  GI50: 13.2 µM
  TGI: 26.1 µM
[30]
  GI50: 12.7 µM
  TGI: 25.5 µM
[2]
  GI50: 15.4 µM
  TGI: 28.9 µM
[31]
  GI50: 7.99 µM
  TGI: 20.5 µM
[32]
  GI50: 10.4 µM
  TGI: 22.2 µM
[33]
  GI50: 7.75 µM
  TGI: 20.2 µM
[34]
  GI50: 12.1 µM
  TGI: 24.7 µM
[35]
  GI50: 11.1 µM
  TGI: 23.2 µM
[36]
  GI50: 2.98 µM
  TGI: 11.6 µM
[37]
  GI50: 4.26 µM
  TGI: 15.3 µM
[38]
  GI50: 5.64 µM
  TGI: 17.7 µM
[39]
  GI50: 16 µM
  TGI: 29.6 µM
[40]
  GI50: 10.7 µM
  TGI: 22.7 µM
[41]
  GI50: 12.9 µM
  TGI: 25.7 µM
[42]
  GI50: 10.7 µM
  TGI: 22.7 µM
[3]
  GI50: 5.15 µM
  TGI: 18.4 µM
[43]
  GI50: 15.9 µM
  TGI: 29.6 µM
[44]
  GI50: 11.3 µM
  TGI: 23.5 µM
[45]
  GI50: 4.89 µM
  TGI: 17.6 µM
[46]
  GI50: 13.9 µM
  TGI: 26.9 µM
[47]
  GI50: 10.6 µM
  TGI: 22.5 µM
[48]
  GI50: 11 µM
  TGI: 23.1 µM
[4]
  GI50: 7.8 µM
  TGI: 20.5 µM
[5]
  GI50: 11.4 µM
  TGI: 23.8 µM
[49]
  GI50: 12.9 µM
  TGI: 25.6 µM
[50]
  GI50: 6.39 µM
  TGI: 19.3 µM
[51]
  GI50: 12.9 µM
  TGI: 25.6 µM
[52]
  GI50: 5.13 µM
  TGI: 16.3 µM
[53]
  GI50: 14.4 µM
  TGI: 28 µM
[54]
  GI50: 7.2 µM
  TGI: 19.9 µM
[55]
  GI50: 1.52 µM
  TGI: 3.17 µM
[56]
  GI50: 11.1 µM
  TGI: 23.2 µM
[57]
  GI50: 12.2 µM
  TGI: 24.9 µM
[58]
  GI50: 10.1 µM
  TGI: 21.8 µM
